Laboratory results taken from patent US8592419B2, “Ceramides and apoptosis-signaling ligand” (MUSC Foundation for Research Development, priority 2004, dated 2013).

Legend:
[1] = target: T1, acid ceramidase (AC) (Homo sapiens, UniProt Q13510); assay: Immunoblot of acid ceramidase protein; type: cell-based; conditions: DU145 cells
T1 construct: endogenous in cells
T1 sequence (Q13510 22-395): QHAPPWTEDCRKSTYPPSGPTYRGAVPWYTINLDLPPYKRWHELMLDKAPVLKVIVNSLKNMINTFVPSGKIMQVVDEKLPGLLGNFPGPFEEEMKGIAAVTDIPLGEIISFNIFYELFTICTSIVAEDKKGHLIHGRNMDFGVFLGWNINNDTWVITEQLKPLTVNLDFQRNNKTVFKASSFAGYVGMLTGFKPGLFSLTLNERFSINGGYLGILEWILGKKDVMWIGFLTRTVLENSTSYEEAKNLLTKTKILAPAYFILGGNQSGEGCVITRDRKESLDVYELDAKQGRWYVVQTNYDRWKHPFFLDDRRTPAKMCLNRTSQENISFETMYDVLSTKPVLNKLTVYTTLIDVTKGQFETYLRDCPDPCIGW
Experimental: (§1) Immunoblot analysis. Cells were seeded in 60mm plates as described above and treated accordingly. Cells were lifted by gently scraping the plates, washed once with ice cold PBS and then lysed in lysis buffer (PBS, 1% Triton X-100, 10% glycerol) containing protease inhibitors pepstatin A (0.5 μg/ml), leupeptin (0.5 μg/ml), aprotinin (5 μg/ml), and PMSF (100 μg/ml) for 10 minutes on ice. Insoluble material was removed by centrifugation at 14,000 rpm for 15 minutes at 4° C. The supernatants were then supplemented with SDS at a final concentration of 2% and stored at −80° C. Protein concentrations were determined using the DC Protein Assay (BioRad Laboratories; Hercules, CA, USA) according to the manufacturer's instructions. 50 μg of protein per sample (unless otherwise indicated) were separated on NuPAGE 4-12% Bis-Tris gels (Invitrogen; Carlsbad, CA, USA) and transferred to nitrocellulose membranes (BioRad). Following transfer, membranes were blocked for 1 hour at room temperature in Tris-buffered saline (TBS) containing 0.1% Tween-20 and 5% nonfat dry milk and incubated overnight at 4° C. with primary antibody at a dilution of 1:2,000(actin), 1:1,000(cytochrome c, COX IV, Bax, Bak, p53, p38, P-p38), 1:500(P-JNK, JNK), 1:250 (AC, p73), or 1:400(LAMP-1, cathepsin B). Overnight incubations were performed in 5% milk in TBS-Tween. Following overnight incubation, membranes were washed three times for 10 minutes each in TBS-Tween and incubated for 1 hour at room temperature with secondary antibody in 5% milk TBS-Tween at a dilution 1:5,000 (goat anti-mouse IgG) or 1:50,000 (goat anti-rabbit). Membranes were then washed three times more and incubated for 5 minutes at room temperature with Super Signal HRP substrate (Pierce Biotechnology Inc.; Rockford, IL, USA).

[2] = tested on: lysosomes of DU145 cells; assay: Lysosomal stability assay (LysoTracker Red); type: cell-based, human
Experimental: Lysosoinal stability assay. Lysosomal stability was measured using the fluorescent dye LysoTracker Red (LTR). Cells were seeded overnight in 60 mm plates. The next day, medium was removed and replaced with medium containing 200 nM LTR. Cells were loaded with LTR for 30 minutes at 37° C. LTR was removed and cells were washed once with PBS, then medium containing the treatment was added for the indicated time. After treatment, cells were lifted with trypsin, washed once in PBS, and resuspended in 0.5 mL growth medium. LTR fluorescence was measured using FACS analysis (564-606 nm) as above. A decrease in fluorescence intensity corresponded to an increase in lysosomal pH, and a minimum of 10,000 events were scored for each sample.

[3] = tested on: cytochrome c; assay: Cytochrome c release into the cytosol (Western blot); type: cell-based, human; conditions: 5 or 10 μM, DU145 cells
Experimental: Immunoblot analysis. Cells were seeded in 60mm plates as described above and treated accordingly. Cells were lifted by gently scraping the plates, washed once with ice cold PBS and then lysed in lysis buffer (PBS, 1% Triton X-100, 10% glycerol) containing protease inhibitors pepstatin A (0.5 μg/ml), leupeptin (0.5 μg/ml), aprotinin (5 μg/ml), and PMSF (100 μg/ml) for 10 minutes on ice. Insoluble material was removed by centrifugation at 14,000 rpm for 15 minutes at 4° C. The supernatants were then supplemented with SDS at a final concentration of 2% and stored at −80° C. Protein concentrations were determined using the DC Protein Assay (BioRad Laboratories; Hercules, CA, USA) according to the manufacturer's instructions. 50 μg of protein per sample (unless otherwise indicated) were separated on NuPAGE 4-12% Bis-Tris gels (Invitrogen; Carlsbad, CA, USA) and transferred to nitrocellulose membranes (BioRad). […]
Subcellular fractionation. […] Enzyme activity per 50 μg lysate was measured using the fluorogenic cathepsin B substrate 111 (Calbiochem) according to the manufacturer's protocol.

[4] = tested on: Bak; assay: Bak protein level and Bak foci (Western blot, confocal microscopy); type: cell-based, human
Experimental: as §1
Confocal Microscopy and Immunocytochemistry. DU145 cells were grown in 4.3 cm^2 chamber slides (Nalge Nunc) and transfected with YFPmito alone or with the dominant-negative inhibitor of Drp1(K38A) (64) using FuGENE6 (Roche; Indianapolis, IN) according to the manufacturer's instructions using 1 μg of total DNA per chamber. 24 hr after transfection and 30 min prior to treatment with 15 μM LCL204, cells were exposed to zVAD-fmk (50 μM). The slides were fixed with 4% paraformaldehyde for 20 min then permeabilized with 0.2% Triton X-100 for 15 min, followed by blocking with 4% bovine serum albumin for 45 min at RT. Cells were probed with rabbit polyclonal 2-14 anti-Bak antibody (1:5000; BioChem) for 2 hr then stained with goat anti-rabbit Alexa Fluor 543 antibodies (1:250; Molecular Probes) for 45 min. After washing, cells were imaged using the 63x objective of an LSM 510 Zeiss confocal microscope.

[5] = tested on: p53; assay: Immunoblot of p53; type: cell-based, human; conditions: DU145 cells, 10 μM
Experimental: as §1, with “Following overnight incubation, membranes were washed three times for 10 minutes each in TBS-Tween and incubated for 1 hour at room temperature with secondary antibody in 5% milk TBS-Tween at a dilution 1:5,000 (goat anti-mouse IgG) or 1:50,000 (goat anti-rabbit). Membranes were then washed three times more and incubated for 5 minutes at room temperature with Super Signal HRP substrate (Pierce Biotechnology Inc.; Rockford, IL, USA).” left out

[6] = tested on: cFLIPS, Survivin, cIAP-1, RIP, Caspase 8; assay: Anti-apoptotic proteins and caspase 8 after LCL204; conditions: DU145 cells

`CCCCCCCCCCCCCCN[C@H](CO)[C@H](O)c1ccc([N+](=O)[O-])cc1.Cl` [LCL204, (1R,2R) D-threo-2-N-Tetradecylamino-1-(4′-nitrophenyl)-1,3-propandiol hydrochloride] was tested, and the “earliest down-regulation of AC” value ([1]; 5 μM) was 2 h, the AC expression levels [1] was “dose and time-dependent decrease in AC expression levels” and the “onset of the effect on lysosomal pH” value ([2]; DU145 cells, 10 μM) was “as early as five minutes”. For the same compound, the “shift in LTR fluorescence (rise in lysosomal pH)” value ([2]; DU145 cells, 1 hour, LCL204 10 μM, C6-ceramide 30 μM, B13 20 μM) was “induced the shift in LTR fluorescence”, the “lysosome destabilization versus concentration” value ([2]; DU145 cells, one hour) was “destabilized lysosomes in a concentration-dependent manner” and the “earliest destabilization of the lysosomes” value ([2]; prostate cancer cells) was 5 min. For the same compound, the “time by which cytochrome c release into the cytosol was detected” value [3] was no more than 4 h, the “Bak protein levels over time” value ([4]; DU145 and PC-3 cells, 10 μM, 12 hours) was “accumulated Bak protein” and the “Bak protein levels versus concentration” value ([4]; DU145 cells, 12-hour treatment) was “concentration-dependent up-regulation”. The “Bak foci on the mitochondria membrane” value ([4]; DU145 cells, 20 hours, confocal microscopy) was “formation of Bak foci was detected”, the “Bak and p73 levels” value ([4]; PPC-1/pcDNA3 cells, 7.5 μM, 5 hours) was “up-regulation of both Bak and p73 levels” and the p53 induction [5] was “induced p53 in DU145 cells after four hours”. For the same compound, the “Caspase 8” value [6] was “unaffected” and the anti-apoptotic proteins [6] was “down-regulation of anti-apoptotic proteins cFLIPS, Survivin, cIAP-1, and RIP”.
